How the values were obtained:
[1] = biological target: T1, GTP-loaded KRAS4b (amino acids 1-169) G12C/C118S protein (Homo sapiens, UniProt P01116, C118S/G12C); assay: Covalent cysteine 12 modification by MALDI-TOF MS, GTP-loaded KRAS G12C; type: binding; conditions: 15 minutes reaction time point
T1 construct: KRAS4b (amino acids 1-169) G12C/C118S protein; made in house
Summary of the method: (§1)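 Covalent labelling is scored at 15 min by MALDI-TOF mass spectrometry, using 1 μM protein with compound at a 1:2.5 protein-to-compound ratio at room temperature.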

[2] = biological target: T2, GDP-loaded KRAS4b (amino acids 1-169) G12C/C118S protein (Homo sapiens, UniProt P01116, C118S/G12C); assay: Covalent cysteine 12 modification by MALDI-TOF MS, GDP-loaded KRAS G12C; type: binding; conditions: 15 minutes reaction time point
T2 construct: KRAS4b (amino acids 1-169) G12C/C118S protein; made in house
Summary of the method: as §1

[3] = biological target: T3, Avi-KRAS G12C (1-169) GppNHp/RAF1 RBD-3×FLAG (52-151) (Homo sapiens, UniProt P01116, G12C); assay: Raf1 RBD-KRAS G12C-GppNHp disruption assay (protein:protein interaction HTRF); type: biochemical
T3 construct: Avi-KRAS G12C (1-169) GppNHp; Avi (N)
Summary of the method: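 HTRF measuring RAF1 RBD binding to GppNHp-loaded KRAS G12C (50 nM) in Tris pH 7.5, 100 mM NaCl, 5 mM MgCl2, 10% DMSO. Compound, KRAS, RBD and detection reagents each added sequentially with 1 h room-temperature incubations; 10-point titration; excitation 320 nm, emission 615 nm; activity as % of DMSO; IC50 derived.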

SMILES	GTP-KRAS G12C percent of modification [1]	GDP-KRAS G12C percent of modification [2]	IC50 [3] [nM]
C=CC(=O)N1CC[C@@H](N(CC)c2nc(OC[C@@H]3C[C@@H](OC)CN3C)nc3c(F)c(-c4ccc(F)c5sc(N)c(C#N)c45)c(C(F)(F)F)cc23)[C@H]1C (single isomer, unassigned) [Compound 117]	D (percent of modification <10%)	D (percent of modification <10%)	5000 to 20000
C=CC(=O)N1CC[C@@H](N(C)c2nc(OC[C@@H]3CCCN3C)nc3c(F)c(-c4nc(N)cc(C)c4C(F)(F)F)c(C(F)(F)F)cc23)[C@H]1C [Compound 122]	B (50≤percent of modification <70%)	A (percent of modification ≥70%)	< 500
C=CC(=O)N1CC[C@@H](N(C)c2nc(OC[C@@]34CCCN3C[C@H](F)C4)nc3c(F)c(-c4ccc(F)c5sc(N)c(C#N)c45)ccc23)[C@H]1CC [Compound 4]	A (percent of modification ≥70%)	A (percent of modification ≥70%)	< 500
C=CC(=O)N1CC[C@@H](N(CC)c2nc(OC[C@]34CCCN3C[C@H](OC)C4)nc3c(F)c(-c4ccc(F)c5sc(N)c(C#N)c45)c(Cl)cc23)[C@H]1C [Compound 164]	A (percent of modification ≥70%)	A (percent of modification ≥70%)	< 500
C=CC(=O)N1CC[C@@H](N(CC)c2nc(OC[C@@H]3C[C@@H](OC)CN3C)nc3c(F)c(-c4ccc(F)c5sc(N)c(C#N)c45)c(C(F)(F)F)cc23)[C@H]1C (single isomer, unassigned) [Compound 116]	A (percent of modification ≥70%)	A (percent of modification ≥70%)	< 500
C=CC(=O)N1CC[C@@H](N(C)c2nc(OC[C@@]34CCCN3C[C@H](F)C4)nc3c(F)c(-c4ccc(F)c5sc(N)c(C#N)c45)c(Cl)cc23)[C@H]1CC [Compound 19]	C (10%≤percent of modification <50%)	C (10%≤percent of modification <50%)	< 500
C=CC(=O)N1CC[C@@H](N(C)c2nc(OC[C@@H]3C[C@@H](OC)CN3C)nc3c(F)c(-c4ccc(F)c5sc(N)c(C#N)c45)c(C(F)(F)F)cc23)[C@H]1C (single isomer, unassigned) [Compound 174]	D (percent of modification <10%)	D (percent of modification <10%)	500 to 5000
C=CC(=O)N1CC[C@@H](N(CC)c2nc(OC[C@@H]3CCCN3C)nc3cc(-c4ccc(F)c5sc(N)c(C#N)c45)c(F)cc23)[C@H]1C [Compound 138]	A (percent of modification ≥70%)	A (percent of modification ≥70%)	< 500
C=CC(=O)N1CC[C@@H](N(C)c2nc(OC[C@H]3C[C@@H](OC)CN3C)nc3c(F)c(-c4ccc(F)c5sc(N)c(C#N)c45)c(C(F)(F)F)cc23)[C@H]1C (single isomer, unassigned) [Compound 175]	D (percent of modification <10%)	D (percent of modification <10%)	5000 to 20000
C=CC(=O)N1CC[C@@H](N(CC)c2nc(OC[C@@H]3CC4(CC4)CN3C)nc3c(F)c(-c4ccc(F)c5sc(N)c(C#N)c45)c(Cl)cc23)[C@H]1C (atropisomer, axis not shown) [Compound 120]	A (percent of modification ≥70%)	A (percent of modification ≥70%)	< 500
C=CC(=O)N1C[C@H](N(C)c2nc(OC[C@@]34CCCN3C[C@H](F)C4)nc3c(F)c(-c4ccc(F)c5sc(N)c(C#N)c45)c(C(F)(F)F)cc23)C[C@H]1C (atropisomer, axis not shown) [Compound 177]	D (percent of modification <10%)	D (percent of modification <10%)	500 to 5000
C=CC(=O)N1CC[C@@H](N(C)c2nc(OC[C@@]34CCCN3C[C@H](F)C4)nc3c(F)c(-c4ccc(F)c5sc(N)c(C#N)c45)c(C(F)(F)F)cc23)[C@H]1CC [Compound 18]	C (10%≤percent of modification <50%)	B (50≤percent of modification <70%)	< 500
C=CC(=O)N1CC[C@@H](N(C)c2nc(OC[C@@H]3C[C@@H](F)CN3CC)nc3c(F)c(-c4ccc(F)c5sc(N)c(C#N)c45)c(Cl)cc23)[C@@H]1C [Compound 105]	C (10%≤percent of modification <50%)	B (50≤percent of modification <70%)	< 500
C=CC(=O)N1C[C@H]2CC[C@@H]1CN2c1nc(OC[C@@]23CCCN2C[C@H](F)C3)nc2c(F)c(-c3ccc(F)c4sc(N)c(C#N)c34)c(C(F)(F)F)cc12 [Compound 36]	D (percent of modification <10%)	D (percent of modification <10%)	500 to 5000
C=CC(=O)N1CC[C@@H](N(C)c2nc(OC[C@@H]3CCCN3C)nc3c(F)c(-c4ccc(F)c5sc(N)c(C#N)c45)c(C(F)(F)F)cc23)[C@H]1C (atropisomer, axis not shown) [Compound 131]	A (percent of modification ≥70%)	A (percent of modification ≥70%)	< 500
C=CC(=O)N1CC[C@@H](N(C)c2nc(OC[C@@H]3C[C@@H](OC)CN3CC)nc3c(F)c(-c4ccc(F)c5sc(N)c(C#N)c45)c(C(F)(F)F)cc23)[C@H]1C [Compound 104]	A (percent of modification ≥70%)	A (percent of modification ≥70%)	< 500
C=CC(=O)N1CC[C@@H](N(C)c2nc(OC[C@@]34CCCN3C[C@H](F)C4)nc3cc(-c4ccc(F)c5sc(N)c(C#N)c45)c(F)cc23)[C@@H]1CC [Compound 22]	D (percent of modification <10%)	A (percent of modification ≥70%)	500 to 5000
C=CC(=O)N1CC[C@@H](N(CC)c2nc(OC[C@@]34CCCN3C[C@H](F)C4)nc3cc(-c4ccc(F)c5sc(N)c(C#N)c45)c(C#N)cc23)[C@H]1C [Compound 25]	A (percent of modification ≥70%)	A (percent of modification ≥70%)	< 500
C=CC(=O)N1C2CC1CN(c1nc(OC[C@@]34CCCN3C[C@H](F)C4)nc3c(F)c(-c4ccc(F)c5sc(N)c(C#N)c45)c(C(F)(F)F)cc13)C2 [Compound 35]	C (10%≤percent of modification <50%)	A (percent of modification ≥70%)	< 500
C=CC(=O)N1CC[C@@H](N(CC)c2nc(OC[C@@]34CCCN3C[C@H](OC)C4)nc3c(F)c(-c4ccc(F)c5sc(N)c(C#N)c45)c(Cl)cc23)[C@H]1C [Compound 163]	A (percent of modification ≥70%)	A (percent of modification ≥70%)	< 500
C=CC(=O)N1CC[C@@H](N(C)c2nc(OC[C@@]34CCCN3C[C@H](F)C4)nc3cc(-c4ccc(F)c5sc(N)c(C#N)c45)c(F)cc23)[C@H]1CC [Compound 29]	A (percent of modification ≥70%)	A (percent of modification ≥70%)	< 500
C=CC(=O)N1CCC(N(C)c2nc(OC[C@@]34CCCN3C[C@H](F)C4)nc3cc(-c4ccc(F)c5sc(N)c(C#N)c45)c(C#N)cc23)[C@H]1CC (stereo partly drawn) [Compound 7]	A (percent of modification ≥70%)	A (percent of modification ≥70%)	< 500
C=CC(=O)N1C[C@H](N(C)c2nc(OC[C@@]34CCCN3C[C@H](F)C4)nc3c(F)c(-c4ccc(F)c5sc(N)c(C#N)c45)c(C(F)(F)F)cc23)C[C@H]1C (atropisomer, axis not shown) [Compound 176]	A (percent of modification ≥70%)	A (percent of modification ≥70%)	< 500
C=CC(=O)N1CC[C@@H](N(CC)c2nc(OC[C@@H]3C[C@@H](F)CN3C)nc3cc(-c4ccc(F)c5sc(N)c(C#N)c45)c(F)cc23)[C@H]1C [Compound 139]	A (percent of modification ≥70%)	A (percent of modification ≥70%)	< 500
C=CC(=O)N1CC[C@@H](N(C)c2nc(OC[C@@]34CCCN3C[C@H](F)C4)nc3cc(-c4ccc(F)c5sc(N)c(C#N)c45)c(F)cc23)[C@@H]1C [Compound 31]	C (10%≤percent of modification <50%)	A (percent of modification ≥70%)	< 500

Reference: patent publication US20260232666A1, “COMPOSITIONS AND METHODS FOR INHIBITION OF RAS” (TheRas, Inc., priority 2023, published 2026)
